Laboratory results: ChEMBL document CHEMBL5096228, “Targeting Vancomycin-Resistant Enterococci (VRE) Infections and Van Operon-Mediated Drug Resistance Using Dimeric Cholic Acid-Peptide Conjugates” (J Med Chem, 2022)
Converted amounts (≈) assume the structure as drawn. The source made the active and inactive calls. The rule behind the calls is not given here.

How the values were obtained:
Staphylococcus aureus [1] = assay: Antimicrobial activity against Staphylococcus aureus ATCC 25923 assessed as growth inhibition after 14 to 16 hrs by CLSI based broth dilution method; type: functional; details: time 14-16 hrs
Enterococcus faecium [2] = assay: Antimicrobial activity against Enterococcus faecium assessed as growth inhibition after 14 to 16 hrs by CLSI based broth dilution method; type: functional; details: time 14-16 hrs
Staphylococcus aureus [3] = assay: Antimicrobial activity against methicillin-resistant Staphylococcus aureus ATCC 33591 assessed as growth inhibition after 14 to 16 hrs by CLSI based broth dilution method; type: functional; details: time 14-16 hrs
Enterococcus faecium [4] = assay: Antimicrobial activity against Vancomycin-resistant Enterococcus faecium ATCC 51559 assessed as growth inhibition after 14 to 16 hrs by CLSI based broth dilution method; type: functional; details: time 14-16 hrs
[5] = Cytotoxicity against mouse LLC cells assessed as reduction in cell viability; type: toxicity, cell-based; details: LLC (3LL) cells
Mus musculus = assay: Antimicrobial activity against Vancomycin-resistant Enterococcus faecium ATCC 51559 induced wound in BALB/c mouse assessed as log reduction in colony forming unit at 40 mg/kg administered topically 3 times daily for 3 days; type: functional; details: route top, time 3 day
Enterococcus faecium [6] = assay: Resistance development in vancomycin-susceptible Enterococcus faecium assessed as vancomycin MIC99 at 2 ug/ml measured after 110 vancomycin passages; type: functional, organism-based; details: dose 2.0 µg/ml
Enterococcus faecium [7] = assay: Development of drug resistance in vancomycin-resistant Enterococcus faecium ATCC 51559 assessed as increase in TN1546 expression measured after 7 days; type: functional; details: time 7 day
Enterococcus faecium [8] = assay: Bactericidal activity against Vancomycin-resistant Enterococcus faecium ATCC 51559 assessed as inhibition of bacterial growth at 4 to 16 ug/ml measured upto 24 hrs by time-kill assay; type: functional, organism-based; details: dose 4-16 µg/ml
[9] = Hemolytic activity in human RBC at 50 ug/ml; type: toxicity, cell-based, Erythrocyte; details: red blood cells (erythrocytes), at 50 µg/mL, read-out: Activity
Cell membrane [10] = assay: Induction of membrane disruption in Vancomycin-resistant Enterococcus faecium ATCC 51559 at 4 to 16 ug/ml measured after 15 mins by DiSC2(5) dye based multimode plate reader assay; type: functional, subcellular; details: dose 4-16 µg/ml
Enterococcus faecium [11] = assay: Induction of reactive oxygen species generation in Enterococcus faecium ATCC 51559 incubated for 1 hr by DCFH-DA based fluorescent microscopy; type: functional, organism-based
[12] = Induction of membrane-permeabilization in Enterococcus faecium ATCC 51559 at 4 ug/ml measured after 1 hr by PI staining based flow cytometry analysis; details: at 4 µg/mL
Enterococcus faecium [13] = assay: Induction of membrane-permeabilization in Enterococcus faecium ATCC 51559 at 8 ug/ml measured after 1 hr by PI staining based flow cytometry analysis; type: functional; details: dose 8.0 µg/ml
Enterococcus faecium [14] = assay: Membrane permeabilization in Enterococcus faecium ATCC 51559 at 16 ug/ml measured after 1 hr by PI staining based flow cytometry analysis; type: functional; details: dose 16 µg/ml
Cell membrane [15] = assay: Disruption of membrane in Enterococcus faecium ATCC 51559 at 4 to 16 ug/ml measured after 1 hr by SYTO9/PI staining based fluorometric analysis; type: subcellular; details: dose 4-16 µg/ml
Cell membrane [16] = assay: Disruption of membrane in Enterococcus faecium ATCC 51559 at 4 ug/ml by SYTO9/PI staining based fluorometric analysis; details: dose 4.0 µg/ml, time 1-6 hrs, TDE = time-dependent effect
Enterococcus faecium [17] = assay: Antibiofilm activity against Vancomycin-resistant Enterococcus faecium ATCC 51559 assessed as log reduction in colony forming unit incubated for 12 hrs by SYTO9 and PI staining based fluorescence assay; type: functional, organism-based; details: dose 4-16 µg/ml, DDE = dose-dependent effect
Enterococcus faecium [18] = assay: Antibiofilm activity against Vancomycin-resistant Enterococcus faecium ATCC 51559 assessed as log reduction in colony forming unit at 16 ug/ml incubated for 12 hrs by SYTO9 and PI staining based fluorescence assay; type: functional; details: dose 16 µg/ml
Enterococcus faecium [19] = assay: Antibiofilm activity against Vancomycin-resistant Enterococcus faecium ATCC 51559 assessed as log reduction in colony forming unit at 32 ug/ml incubated for 12 hrs by SYTO9 and PI staining based fluorescence assay; type: functional; details: dose 32 µg/ml
Enterococcus faecium [20] = assay: Antibiofilm activity against Vancomycin-resistant Enterococcus faecium ATCC 51559 assessed as log reduction in colony forming unit at 16 ug/ml by SYTO9 and PI staining based fluorescence assay; type: functional, organism-based; details: dose 16.0 µg/ml, time 1-6 hrs, TDE = time-dependent effect
Enterococcus faecium [21] = assay: Antibiofilm activity against Vancomycin-resistant Enterococcus faecium ATCC 51559 assessed as log reduction in colony forming unit at 16 ug/ml incubated for 3 hrs by SYTO9 and PI staining based fluorescence assay; type: functional; details: dose 16 µg/ml
Enterococcus faecium [22] = assay: Antimicrobial activity against vancomycin-susceptible Enterococcus faecium induced wound in BALB/c mouse assessed as log reduction in colony forming unit at 40 mg/kg administered topically 3 times daily for 3 days; type: functional, organism-based; details: route top, time 3.0 day
Enterococcus faecium [23] = assay: Resistance development in vancomycin-resistance Enterococcus faecium ATCC 51559 assessed as decrease CFU measured in presence of vancomycin; type: functional, organism-based
Enterococcus faecium [24] = assay: Development of drug resistance in vancomycin-resistant Enterococcus faecium ATCC 51559 assessed as increase in TN1546 expression measured after 7 days in presence of vancomycin; type: functional, organism-based; details: time 7.0 day
Enterococcus faecium [25] = assay: Inhibition of vancomycin-resistance in Enterococcus faecium ATCC 51559 assessed as increase in vanR expression at 2 ug/ml measured after 1 hr by qRT-PCR analysis; type: functional; details: dose 2.0 µg/ml
Enterococcus faecium [26] = assay: Inhibition of vancomycin-resistance in Enterococcus faecium ATCC 51559 assessed as increase in vanS expression at 2 ug/ml measured after 1 hr by qRT-PCR analysis; type: functional; details: dose 2.0 µg/ml
Enterococcus faecium [27] = assay: Inhibition of vancomycin-resistance in Enterococcus faecium ATCC 51559 assessed as increase in vanH expression at 2 ug/ml measured after 1 hr by qRT-PCR analysis; type: functional; details: dose 2.0 µg/ml
Enterococcus faecium [28] = assay: Inhibition of vancomycin-resistance in Enterococcus faecium ATCC 51559 assessed as increase in vanA expression at 2 ug/ml measured after 1 hr by qRT-PCR analysis; type: functional; details: dose 2.0 µg/ml
Enterococcus faecium [29] = assay: Inhibition of vancomycin-resistance in Enterococcus faecium ATCC 51559 assessed as increase in vanX expression at 2 ug/ml measured after 1 hr in presence of vancomycin by qRT-PCR analysis; type: functional; details: dose 2.0 µg/ml
Enterococcus faecium [30] = assay: Inhibition of vancomycin-resistance in Enterococcus faecium ATCC 51559 assessed as increase in vanY expression at 2 ug/ml measured after 1 hr by qRT-PCR analysis; type: functional; details: dose 2.0 µg/ml
Enterococcus faecium [31] = assay: Inhibition of vancomycin-resistance in Enterococcus faecium ATCC 51559 assessed as increase in vanZ expression at 2 ug/ml measured after 1 hr by qRT-PCR analysis; type: functional; details: dose 2.0 µg/ml
Enterococcus faecium [32] = assay: Inhibition of vancomycin-resistance in Enterococcus faecium ATCC 51559 assessed as reduction in vanR expression at 2 ug/ml measured after 1 hr in presence of vancomycin by qRT-PCR analysis; type: functional; details: dose 2.0 µg/ml
Enterococcus faecium [33] = assay: Inhibition of vancomycin-resistance in Enterococcus faecium ATCC 51559 assessed as reduction in vanS expression at 2 ug/ml measured after 1 hr in presence of vancomycin by qRT-PCR analysis; type: functional; details: dose 2.0 µg/ml
Enterococcus faecium [34] = assay: Inhibition of vancomycin-resistance in Enterococcus faecium ATCC 51559 assessed as reduction in vanH expression at 2 ug/ml incubated for 1 hr measured after 7 days in presence of vancomycin by qRT-PCR analysis; type: functional; details: dose 2.0 µg/ml
Enterococcus faecium [35] = assay: Inhibition of vancomycin-resistance in Enterococcus faecium ATCC 51559 assessed as reduction in vanA expression at 2 ug/ml incubated for 1 hr measured after 7 days in presence of vancomycin by qRT-PCR analysis; type: functional; details: dose 2.0 µg/ml
Enterococcus faecium [36] = assay: Inhibition of vancomycin-resistance in Enterococcus faecium ATCC 51559 assessed as reduction in vanX expression at 2 ug/ml incubated for 1 hr measured after 7 days in presence of vancomycin by qRT-PCR analysis; type: functional; details: dose 2.0 µg/ml
Enterococcus faecium [37] = assay: Inhibition of vancomycin-resistance in Enterococcus faecium ATCC 51559 assessed as reduction in vanY expression at 2 ug/ml incubated for 1 hr measured after 7 days in presence of vancomycin by qRT-PCR analysis; type: functional; details: dose 2.0 µg/ml
Enterococcus faecium [38] = assay: Inhibition of vancomycin-resistance in Enterococcus faecium ATCC 51559 assessed as reduction in vanZ expression at 2 ug/ml incubated for 1 hr measured after 7 days in presence of vancomycin by qRT-PCR analysis; type: functional; details: dose 2.0 µg/ml

## CN[C@H](CC(C)C)C(=O)N[C@H]1C(=O)N[C@@H](CC(N)=O)C(=O)N[C@H]2C(=O)N[C@H]3C(=O)N[C@H](C(=O)N[C@H](C(=O)O)c4cc(O)cc(O)c4-c4cc3ccc4O)[C@H](O)c3ccc(c(Cl)c3)Oc3cc2cc(c3O[C@@H]2O[C@H](CO)[C@@H](O)[C@H](O)[C@H]2O[C@H]2C[C@](C)(N)[C@H](O)[C@H](C)O2)Oc2ccc(cc2Cl)[C@H]1O [VANCOMYCIN]
Staphylococcus aureus [1]
  MIC99: 8 µg/mL (≈ 5.52 µM)
Enterococcus faecium [2]
  MIC99: 4 µg/mL (≈ 2.76 µM)
Staphylococcus aureus [3]
  MIC99: 2 µg/mL (≈ 1.38 µM)
Enterococcus faecium [4]
  MIC99: > 128 µg/mL
[5]
  IC50: > 1000 µM
Mus musculus
  log(activity): 2
Enterococcus faecium [6]
  Activity: Active
Enterococcus faecium [7]
  fold change (FC): 3

## CC(C)C(N)C(=O)NCC(=O)O[C@@H]1CC[C@@]2(C)[C@@H](C1)C[C@@H](OC(=O)CNC(=O)C(N)C(C)C)[C@@H]1[C@@H]2C[C@H](OC(=O)CNC(=O)C(N)C(C)C)[C@]2(C)[C@@H]([C@H](C)CCC(=O)NCc3cn(CCCn4cc(CNC(=O)CC[C@@H](C)[C@H]5CC[C@H]6[C@@H]7[C@H](OC(=O)CNC(=O)C(N)C(C)C)C[C@@H]8C[C@H](OC(=O)CNC(=O)C(N)C(C)C)CC[C@]8(C)[C@H]7C[C@H](OC(=O)CNC(=O)C(N)C(C)C)[C@]56C)nn4)nn3)CC[C@@H]12.Cl.Cl.Cl.Cl.Cl.Cl (stereo not given in full)
Enterococcus faecium [8]
  Activity: Active
Staphylococcus aureus [1]
  MIC99: 64 µg/mL
Enterococcus faecium [2]
  MIC99: 16 µg/mL
Staphylococcus aureus [3]
  MIC99: 16 µg/mL
Enterococcus faecium [4]
  MIC99: 4 µg/mL
[5]
  IC50: 414 µg/mL
[9]
  hemolysis at 50 ug/ml: 5%
Cell membrane [10]
  Activity: Active
Enterococcus faecium [11]
  Activity: Active
[12]
  Activity: 90%
Enterococcus faecium [13]
  Activity: 90%
Enterococcus faecium [14]
  Activity: 90%
Cell membrane [15]
  Activity: Active
Cell membrane [16]
  Activity: Tde
Enterococcus faecium [17]
  Activity: Dde
Enterococcus faecium [18]
  log(activity): 3
Enterococcus faecium [19]
  log(activity): 5
Enterococcus faecium [20]
  Activity: Tde
Enterococcus faecium [21]
  log(activity): 3
Mus musculus
  log(activity): 1
Enterococcus faecium [22]
  Activity: Active
Enterococcus faecium [23]
  Activity: Active
Enterococcus faecium [24]
  Activity: Active
Enterococcus faecium [25]
  Activity: Active
Enterococcus faecium [26]
  Activity: Active
Enterococcus faecium [27]
  Activity: Active
Enterococcus faecium [28]
  Activity: Active
Enterococcus faecium [29]
  Activity: Active
Enterococcus faecium [30]
  Activity: Active
Enterococcus faecium [31]
  Activity: Active
Enterococcus faecium [32]
  Activity: Active
Enterococcus faecium [33]
  Activity: Active
Enterococcus faecium [34]
  Activity: Active
Enterococcus faecium [35]
  Activity: Active
Enterococcus faecium [36]
  Activity: Active
Enterococcus faecium [37]
  Activity: Active
Enterococcus faecium [38]
  Activity: Active
